Data set [1] has as its system human acute myeloid leukemia MV-4-11 cell. Put plainly: Cytotoxic action on MV-4-11 cells (WST-8, 96 hr). It is filed as cell-based. The following applies: MV4-11, MV-4-11, 96 hr. The procedure: (§1) The cytotoxic action of the compound of the present invention against human cancer cells was evaluated in vitro. In this experiment, (+)-JQ1 (Nature volume 468, pages 1067-1073 (23 Dec. 2010)) known to have an inhibitory activity on the binding of BRD4 protein and a ligand therefor was used as a positive control drug. Respective cells were suspended in 10% FBS/RPMI1640, seeded in a 96 well plate and cultured at 5% CO2, 37° C. overnight. A test compound dissolved in DMSO was diluted with 10% FBS/RPMI1640 and added and the cells were further cultured for 96 hr. After culturing, the viable cell number was measured using a cell number measurement WST-8 kit (Kishida Chemical Co., Ltd.). As a control, the measurement was performed under conditions free of the test compound. The cytotoxic activity of the compound of the present invention against human prostate cancer LNCaP cells is shown in IC50 value in Table 1. The IC50 value is a concentration of the compound showing 50% cell survival rate when the cell survival rate thereof under compound untreated condition is 100%. It was calculated from the straight line connecting the cell survival rate at two points enclosing the 50% cell survival rate and the compound concentration. […]

In data set [2] the test system is human Burkitt lymphoma Raji cell. Put plainly: Cytotoxic action on Raji cells (WST-8, 96 hr). In kind it is cell-based. The procedure: as §1
The test system of data set [3] is human castration-resistant prostate cancer PC-3 cell. Put plainly: Cytotoxic action on PC-3 cells (WST-8, 96 hr). In kind it is cell-based. The following applies: PC-3, 96 hr. The procedure:
as §1

Data set [4] concerns human breast cancer ZR-75-1 cell. The data set is described as follows: Cytotoxic action on ZR-75-1 cells (WST-8, 96 hr). It is filed as cell-based. The following applies: ZR-75-1, 96 hr. As for the experimental part:
as §1

For data set [5], the system named is human stomach cancer SNU-16 cell. The data set is described as follows: Cytotoxic action on SNU-16 cells (WST-8, 96 hr). It is filed as cell-based. The following applies: SNU-16, 96 hr. As for the experimental part: as §1
Data set [6] relates to human small cell lung cancer NCI-H82 cell. The data set is described as follows: Cytotoxic action on NCI-H82 cells (WST-8, 96 hr). As to conditions: NCI-H82, 96 hr. It is filed as cell-based. As for the experimental part:
as §1

The subject of data set [7] is human glioma U-87 MG cell. Put plainly: Cytotoxic action on U-87 MG cells (WST-8, 96 hr). In kind it is cell-based. As for the experimental part:
as §1

The test system of data set [8] is human bile duct cancer HuCCT1 cell. Put plainly: Cytotoxic action on HuCCT1 cells (WST-8, 96 hr). In kind it is cell-based. The following applies: HuCCT-1, HuCCT1, 96 hr. As for the experimental part: as §1
The target of data set [9] is BRD4 protein (Homo sapiens (Human), UniProt O60885). The data set is described as follows: Inhibitory action on binding of BRD4 protein and acetylated histone H4 (TR-FRET). As to conditions: BRD4-1 (GST) and acetylated histone H4 peptide, 3 hr. The procedure: The inhibitory action of the compound of the present invention on the binding of BRD4 protein and a ligand thereof (acetylated histone H4) was evaluated by the time-resolved fluorescence resonance energy transfer (TR-FRET) method using EPIgeneous™ Binding Domain Kit A (Cisbio), BRD4-1 (GST) (Reaction Biology Corp) and [Lys(Ac)5/8/12/16]-Histone H4(1-21)-GGK (Biotin) (Eurogentec). In this experiment, (+)-JQ1 (Nature volume 468, pages 1067-1073 (23 Dec. 2010)) known to have an inhibitory activity on the binding of BRD4 protein and acetylated histone H4 therefor was used as a positive control drug. A test compound dissolved in DMSO was diluted with attached Diluent Buffer, added to a 384 well white plate, and BRD4-1 (GST) and [Lys(Ac)5/8/12/16]-Histone H4(1-21)-GGK (Biotin) were further added. Thereafter, Streptavidin-d2 conjugate and Anti-GST-Eu^3+ Cryptate Conjugate were added and the cells were incubated at room temperature for 3 hr. The binding amount of the BRD4 protein and acetylated histone H4 was measured as the fluorescence intensity (excitation: 314 nm/emission: 620 nm and excitation: 314 nm/emission: 665 nm). […] It was calculated from the straight line connecting the degradation rate at two points enclosing the 50% fluorescence intensity and the compound concentration.

For data set [10], the system named is human acute myeloid leukemia MV-4-11 cell transplanted mouse. The data set is described as follows: Antitumor effect in MV-4-11 cell transplanted mouse (tail vein, days 1, 5, 9, 13). It is filed as in vivo. The following applies: tumor weight on day 15. As for the experimental part: The in vivo antitumor effect of the compound of the present invention was studied using human acute myeloid leukemia MV-4-11 cell transplanted mouse. MV-4-11 cells were subcutaneously transplanted into the inguinal region of male, 6-week-old BALB/c nude mouse (5×10^6 cells/mouse). The compound of the present invention was administered into the tail vein on days 1, 5, 9, 13 from the time point when the assumed tumor volume determined from ½ab^2 (a is major axis and b is minor axis of tumor) reached about 100 mm^3 (day 1). The control group was administered with a solvent, 20% hydroxypropyl-β-cyclodextrin solution. On day 15, the tumor was isolated, the weight was measured, and the tumor growth inhibitory rate IR (%) was calculated by the following formula. tumor growth inhibitory rate IR (%)={1−(average tumor weight of administration group/average tumor weight of nonadministration control group)}×100(%)

A short description of data set [11]: Maximum tolerated dose in rats (single tail vein administration). The following applies: rat, in vivo, intravenous, male CD (SD) rats. As for the experimental part:
The maximum tolerated dose (MTD) in rats was determined for the compound of the present invention.

Marks after values point to notes of the source that are not given here. Bounds are passed on as bounds.

As for `COC(=O)C[C@@H]1N=C(c2ccc(-c3ccc(C(=O)NCc4ccc(S(=O)(=O)Nc5ccc(C)c6c(C#N)c[nH]c56)cc4)cc3)cc2)c2c(sc(C)c2C)-n2c(C)nnc21` [Example 1, methyl [(6S)-4-{4′-[({4-[(3-cyano-4-methyl-1H-indol-7-yl)sulfamoyl]phenyl}methyl)carbamoyl][1,1′-biphenyl]-4-yl}-2,3,9-trimethyl-6H-thieno[3,2-f][1,2,4]triazolo[4,3-a][1,4]diazepin-6-yl]acetate], the IC50 in [1] turned out to be 0.16 nM; in data set [2] it was 5.3 nM; in data set [3], 0.88 nM; in data set [4] it was 27 nM; in [5], 6.4 nM; in [6] it was 21 nM. Moreover, the IC50 was determined as 6 nM in data set [7], 26 nM in [8] and 29 nM in data set [9]. The “tumor growth inhibitory rate” value in data set [10] (1 mg/kg/day) is given as 68.4* %; in data set [10] (3 mg/kg/day), 95.3* %. In data set [11], the MTD was > 10 mg/kg.
